Measurements as given in patent US8338622B2, “Heterocyclic compound” (Takeda Pharmaceutical Company Limited, priority 2008, dated 2012).

How the values were obtained:
[1] = target: T1, human RBP4 (Homo sapiens, UniProt P02753); test: Binding assay by Retinol-RBP4-TTR ELISA (human type ELISA); conditions: retinol 0.5 μM, read-out: human RBP4 binding inhibitory activity (IC50 nM)
T1 construct: the culture supernatant containing secreted/expressed hRBP4-His was recovered; His tag (His6, read from the HISENU oligo); made in house; host or cells: FreeStyle293 expression system (Invitrogen), secreted into the culture supernatant
Procedure: The action of the compound of the present invention to inhibit the binding between RBP4, and retinol and TTR was evaluated using the Retinol-RBP4-TTR ELISA (human type ELISA) system shown below.
The binding assay was performed by an ELISA system (Retinol-RBP4-TTR ELISA) for detecting retinol-RBP4-TTR conjugate by streptavidin-biotin reaction.
His-tagged human RBP4 used was prepared in the above-mentioned 1C.
Biotinylated human TTR used was prepared in the above-mentioned 1E.
Streptavidin (20 μl) (10 μg/ml Streptavidin type II (Wako Pure Chemical Industries, Ltd.), 10 mM Tris-HCl (pH 7.5), 10 mM NaCl) was added to a 384 well black maxisorp plate (Nunc), and the plate was subjected to centrifugation (1000 rpm, 1 min) and coated overnight at 4° C. The plate was washed twice with PBST (PBS, 0.05% Tween 20, 100 μl/well) and blocked with 25% Block Ace (Snow Brand Milk Products Co., Ltd., PBS, 100 μl/well). The plate was subjected to centrifugation (1000 rpm, 1 min) and incubated at room temperature for 4 hr or overnight at 4° C. The plate was washed twice with PBST (PBS, 0.05% Tween 20, 100 μl/well), and biotinylated human TTR (stock solution concentration 1.3 mg/ml) diluted 1000-fold with PBST was added at 20 μl/well. The plate was subjected to centrifugation (1000 rpm, 1 min) and stood still at room temperature for 1.5 hr or overnight at 4° C. The plate was washed 3 times with PEST (100 μl/well), and His-tagged human RBP4 (stock solution concentration 0.96 mg/ml) diluted 4000-fold with a reaction buffer (50 mM Tris-HCl, 150 mM NaCl, 0.005% Tween 20, 1 mM DTT, 0.1% BSA) was added at 10 μl/well. The dilution series (8 doses from 10 mM, 200-fold concentration) of the compound was prepared with DMSO, and 1 μl of each was added to a reaction buffer (200 μl) containing retinol (0.5 μM) (Sigma-Aldrich Co.). A reaction buffer (200 μl) containing retinol and added with DMSO was used as a positive control, and reaction buffer (200 μl) free of retinol and added with DMSO was used as a negative control. Mixed solutions of retinol and the compound were added to the plate at 15 μl/well. The mixture was stirred in a platemixer, subjected to centrifugation (1000 rpm, 1 min) and reacted at room temperature for 2 hr. A 35% Block Ace solution diluted with the reaction buffer was added at 10 μl/well, centrifuged (1000 rpm, 1 min) and reacted at room temperature for 30 min. The plate was washed 3 times with PBST (100 μl/well) and SuperSignal ELISA Femto Maximum Sensitivity Substrate reagent (PIERCE) was added at 30 μl/well, and the luminescence was measured by a platereader (Wallac).
The binding activity rate of the compound was determined by 100×(test compound value−negative control value)/(positive control value−negative control value). The binding inhibitory activity (IC50) was calculated from the binding activity rate at each compound concentration using a graph drawing software, Prism (GraphPad Software Inc.).

[2] = target: T2, RBP4 (Mus musculus, UniProt Q00724); test: Blood RBP4 lowering action in C57BL/6J mouse, single oral administration; type: in vivo; conditions: plasma, mean±SD n=5; for RBP4 (% of initial/Control) 0 hr later: 0 hr value before administration, 50 mg/kg oral; for RBP4 (% of initial/Control) 4 hr later: 4 hr after 50 mg/kg oral; for RBP4 (% of initial/Control) 7 hr later: 7 hr after 50 mg/kg oral; for RBP4 (% of initial/Control) 24 hr later: 24 hr after 50 mg/kg oral
T2 construct: from tissue; host or cells: plasma of male C57BL/6J mice (Charles River Laboratories Japan Inc.)
Procedure: A blood RBP4 lowering action of the compound of the present invention was evaluated using C57BL/6J mouse.
Male 7- to 15-week-old C57BL/6J mice (Charles River Laboratories Japan Inc.) were individually bred for acclimation for 4-6 days under conditions with free access to CE-2 solid food (CLEA Japan, Inc.), and grouped based on the body weight (5 per group). The next day of grouping, blood samples were collected from the orbital venous plexus, and plasma was separated (0 hr value). Thereafter, the test compounds (Examples 1, 13, 15, 16, 17, 27 and 34) were orally administered at a dose of 50 mg/kg (solvent: 0.5% methylcellulose solution (10 mL/kg)). At 4, 7 and 24 hr after administration of the compounds, blood samples were collected from the orbital venous plexus, and plasma was separated. A 0.5% methylcellulose solution (10 mL/kg) was orally administered to the control group.
The RBP4 level of the collected plasma was measured by ELISA. RBP4 was quantified by the following steps using a rabbit, anti-mouse RBP4 polyclonal antibody (Hokudo Co., Ltd). A 96 well ELISA plate was coated with 50 μg/ml of the antibody (100 μL) and stood at 4° C. overnight. After blocking with BlockAce (DAINIPPON PHARMACEUTICAL CO., LTD.), mouse RBP4 or a sample (100 μL) was added and the plate was stood at room temperature for 2 hr. After washing with PBS-0.5% Tween 20, HRP-labeled anti-RBP4 antibody (prepared by labeling RBP4 polyclonal antibody (Hokudo Co., Ltd) with HRP (DOJINDO LABORATORIES)) was added by 100 μL, and the plate was stood at room temperature for 1 hr. After washing, TMB (Dako Cytomations) was added, and the mixture was stood at room temperature for 20 min to allow color development, and the reaction was quenched with 2N sulfuric acid. Thereafter, the absorbance at A450 nm was measured on a platereader. The amount of change from the initial value of each animal was determined as a relative value from the control group (% of initial/Control) at each time point. The results are shown in the following in mean±standard deviation (n=5).

Compound: O=C(O)CSC1CCN(c2cc(C(F)(F)F)cc(C(F)(F)F)c2)C1 (single isomer, unassigned) [Example 10, ({1-[3,5-bis(trifluoromethyl)phenyl]pyrrolidin-3-yl}sulfanyl)acetic acid]
- IC50 [1]: 27 nM

Compound: O=C(O)CSC1CCN(c2cc(C(F)(F)F)cc(C(F)(F)F)c2)C1 (single isomer, unassigned) [Example 11, ({1-[3,5-bis(trifluoromethyl)phenyl]pyrrolidin-3-yl}sulfanyl)acetic acid]
- IC50 [1]: 13 nM

Compound: O=C(O)CSC1CCN(c2cc(C(F)(F)F)cc(C(F)(F)F)c2)C1 (centres unmarked) [Example 1, ({1-[3,5-bis(trifluoromethyl)phenyl]pyrrolidin-3-yl}sulfanyl)acetic acid]
- IC50 [1]: 45 nM
- RBP4 (% of initial/Control) 0 hr later [2]: 100 ± 20.2 % of initial/Control
- RBP4 (% of initial/Control) 4 hr later [2]: 42.5 ± 3.3 % of initial/Control
- RBP4 (% of initial/Control) 7 hr later [2]: 36.0 ± 3.2 % of initial/Control
- RBP4 (% of initial/Control) 24 hr later [2]: 73.8 ± 19.3 % of initial/Control

Compound: O=C(O)C[S+]([O-])C1CCN(c2cc(C(F)(F)F)cc(C(F)(F)F)c2)C1 (centres unmarked) [Example 2, ({1-[3,5-bis(trifluoromethyl)phenyl]pyrrolidin-3-yl}sulfinyl)acetic acid]
- IC50 [1]: 38 nM

Compound: O=C(O)CCC1CCN(c2ccc(Cl)c(C(F)(F)F)c2)C1 (centres unmarked) [Example 13, 3-{1-[4-chloro-3-(trifluoromethyl)phenyl]pyrrolidin-3-yl}propanoic acid]
- IC50 [1]: 26 nM
- RBP4 (% of initial/Control) 0 hr later [2]: 100.0 ± 10.9 % of initial/Control
- RBP4 (% of initial/Control) 4 hr later [2]: 54.5 ± 1.2 % of initial/Control
- RBP4 (% of initial/Control) 7 hr later [2]: 56.5 ± 2.5 % of initial/Control
- RBP4 (% of initial/Control) 24 hr later [2]: 106.6 ± 3.9 % of initial/Control

Compound: O=C(O)CCC1CCN(c2cccc(C(F)(F)F)c2Cl)C1 (centres unmarked) [Example 14, 3-{1-[2-chloro-3-(trifluoromethyl)phenyl]pyrrolidin-3-yl}propanoic acid]
- IC50 [1]: 39 nM

Compound: O=C(O)CCN1CCN(c2cc(C(F)(F)F)cc(C(F)(F)F)c2)C1=O [Example 15, 3-{3-[3,5-bis(trifluoromethyl)phenyl]-2-oxoimidazolidin-1-yl}propanoic acid]
- IC50 [1]: 320 nM
- RBP4 (% of initial/Control) 0 hr later [2]: 100.0 ± 4.4 % of initial/Control
- RBP4 (% of initial/Control) 4 hr later [2]: 51.0 ± 1.4 % of initial/Control
- RBP4 (% of initial/Control) 7 hr later [2]: 49.0 ± 1.1 % of initial/Control
- RBP4 (% of initial/Control) 24 hr later [2]: 58.2 ± 2.7 % of initial/Control

Compound: O=C(O)COC1CCN(c2ccc(Cl)c(C(F)(F)F)c2)C1 (centres unmarked) [Example 27, calcium ({1-[4-chloro-3-(trifluoromethyl)phenyl]pyrrolidin-3-yl}oxy)acetate]
- IC50 [1]: 140 nM
- RBP4 (% of initial/Control) 0 hr later [2]: 100.0 ± 2.1 % of initial/Control
- RBP4 (% of initial/Control) 4 hr later [2]: 56.2 ± 1.7 % of initial/Control
- RBP4 (% of initial/Control) 7 hr later [2]: 56.0 ± 1.6 % of initial/Control
- RBP4 (% of initial/Control) 24 hr later [2]: 59.6 ± 2.1 % of initial/Control

Compound: O=C(O)CN1CC(c2cc(C(F)(F)F)cc(C(F)(F)F)c2)CC1=O (centres unmarked) [Example 48, {4-[3,5-bis(trifluoromethyl)phenyl]-2-oxopyrrolidin-1-yl}acetic acid]
- IC50 [1]: 210 nM

Compound: O=C(O)CCSC1CCN(c2cc(C(F)(F)F)cc(C(F)(F)F)c2)C1 (centres unmarked) [Example 50, 3-({1-[3,5-bis(trifluoromethyl)phenyl]pyrrolidin-3-yl}sulfanyl)propanoic acid]
- IC50 [1]: 81 nM
